Results as given in patent publication US8163894B2, “DNA for eukaryotic expression of CymR” (National Research Council of Canada, priority 2001, dated 2012).

system: CymR-mediated expression (P2-cymlacZ fusion system); experiment: Induction of expression in the P2-cymlacZ fusion system by candidate effectors; format: cell-based, Pseudomonas putida; conditions: not given
Excerpt: The need to solubilize p-cumate (p-cumic acid) in organic solvent (e.g. ethanol or dimethyl formamide) is a great disadvantage. The present invention thus provides water-soluble effectors as well as possibly expanding the spectrum of inducers beyond p-cumate. At first, cumic alcohol, 4-methyl benzylalcohol, ethyltoluene, indole-2-carboxylic acid, indole-3-carboxylic acid, benzoic acid, 3- and 4-hydroxybenzoic acids, 3,4-dihyroxybenzoic acid and 2,4-dihydrobenzoic acid were tried. […] In this P2-cymlacZ fusion system, the threshold cumate concentration for induction is in the order of 0.002 millimolar (mM).
The sodium salt of cumic acid was also tested vs cumic acid (taken as cumate).
Both sodium benzoate and sodium toluate are ineffective.

Compound | ability to act as inducer | response compared with parental cumate | threshold of concentration giving a response, vs cumic acid
O=C(O)c1c[nH]c2ccccc12 [indole-3-carboxylic acid] | none of these compounds could act as effective inducers | – | –
Na^+ trimethyl cumate | – | not as good as the parental cumate | –
sodium toluate | ineffective | – | –
O=C(O)c1ccccc1 [benzoic acid, Benzoic acid] | none of these compounds could act as effective inducers | – | –
CC(C)c1ccc(CO)cc1 [cumic alcohol] | none of these compounds could act as effective inducers | – | –
O=C(O)c1ccc(O)c(O)c1 [3,4-dihyroxybenzoic acid] | none of these compounds could act as effective inducers | – | –
O=C([O-])c1ccccc1.[Na+] [sodium benzoate] | ineffective | – | –
CC(C)c1ccc(C(=O)[O-])cc1.[Na+] [sodium salt of cumic acid] | – | – | did not change appreciably
Cc1ccc(CO)cc1 [4-methyl benzylalcohol] | none of these compounds could act as effective inducers | – | –
ethyltoluene | none of these compounds could act as effective inducers | – | –
CCc1ccc(C(=O)[O-])cc1.[Na+] [Na^+ 4-ethylbenzoate] | acts as an inducer | not as good as the parental cumate | –
O=C(O)c1cccc(O)c1 [3-hydroxybenzoic acid, 3- and 4-hydroxybenzoic acids] | none of these compounds could act as effective inducers | – | –
O=C(O)c1cc2ccccc2[nH]1 [indole-2-carboxylic acid] | none of these compounds could act as effective inducers | – | –

same assay, conditions: 0.02 mM

Compound | ability to act as inducer
CN(C)c1ccc(C(=O)O)cc1 [DM PABA, Di-methyl p-aminobenzoic acid] | effective inducers

same assay, conditions: 0.1 mM

Compound | ability to act as inducer
Na^+ trimethyl cumate | effective inducer
CN(C)c1ccc(C(=O)O)cc1 [DM PABA, Di-methyl p-aminobenzoic acid] | just as good an inducer as parent cumate

system: 293 CuO-GFP clone 13; experiment: Testing of cumate analogues as effector molecule (FIG. 16); format: cell-based; conditions: not given
Excerpt: Of course cumate can be substituted for various cumate analogues also referred to as effector molecule as described before.
The Deposits were received by the authority on Apr. 10, 2002, and were given accession number IDA-100402-1 and IDA-100402-2, respectively. 293 CuO-GFP clone 13 was also deposited on Apr. 10, 2002 in the same IDA and was given accession number IDA-100401-3.

Compound | activity as activator (effector molecule)
CC(C)Cc1ccc(C(=O)O)cc1 [C6, p-isobutylbenzoic acid] | good activators
CN(C)c1ccc(C(=O)O)cc1 [C11, p-N-dimethylaminobenzoic acid] | good activators
CCNc1ccc(C(=O)O)cc1 [C13, p-N-ethylaminobenzoic acid] | good activators
CCCc1ccc(C(=O)O)cc1 [C4, p-Propylbenzoic acid] | good activators

system: not listed separately; experiment: Water solubility of effectors; format: physicochemical; conditions: not given

Compound | water solubility
CC(C)c1ccc(C(=O)[O-])cc1.[Na+] [sodium salt of cumic acid] | water-soluble
